Assay [1] deals with Sodium-dependent serotonin transporter (Rattus norvegicus, UniProt P31652). The assay can be described thus: Binding potency for Serotonin transporter using [3H]- paroxetine.
For assay [2], the target named is Sodium-dependent dopamine transporter (Rattus norvegicus, UniProt P23977). The assay can be described thus: Inhibition of [3H]WIN-35428 binding to Dopamine transporter.
The target of assay [3] is Norepinephrine transporter (Rattus norvegicus, UniProt Q9WTR4). Put plainly: Binding potency for Norepinephrine transporter using [3H]NE.
Sequence of Norepinephrine transporter (Q9WTR4 whole entry): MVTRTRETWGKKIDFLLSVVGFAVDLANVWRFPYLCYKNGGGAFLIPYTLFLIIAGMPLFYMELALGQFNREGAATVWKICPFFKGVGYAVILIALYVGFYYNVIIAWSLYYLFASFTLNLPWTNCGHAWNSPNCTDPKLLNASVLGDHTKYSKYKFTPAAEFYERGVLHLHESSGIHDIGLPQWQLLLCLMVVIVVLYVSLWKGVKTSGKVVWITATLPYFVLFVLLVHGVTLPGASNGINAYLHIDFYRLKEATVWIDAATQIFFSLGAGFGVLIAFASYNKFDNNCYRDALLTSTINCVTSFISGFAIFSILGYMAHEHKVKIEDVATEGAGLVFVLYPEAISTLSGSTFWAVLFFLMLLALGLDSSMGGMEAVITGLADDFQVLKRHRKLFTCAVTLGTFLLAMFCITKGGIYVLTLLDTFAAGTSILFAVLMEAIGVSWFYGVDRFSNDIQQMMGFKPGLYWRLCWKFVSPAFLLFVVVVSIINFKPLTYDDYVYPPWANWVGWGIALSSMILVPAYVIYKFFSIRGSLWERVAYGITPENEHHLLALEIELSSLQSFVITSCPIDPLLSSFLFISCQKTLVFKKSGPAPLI

Sequence of Sodium-dependent dopamine transporter (P23977 whole entry): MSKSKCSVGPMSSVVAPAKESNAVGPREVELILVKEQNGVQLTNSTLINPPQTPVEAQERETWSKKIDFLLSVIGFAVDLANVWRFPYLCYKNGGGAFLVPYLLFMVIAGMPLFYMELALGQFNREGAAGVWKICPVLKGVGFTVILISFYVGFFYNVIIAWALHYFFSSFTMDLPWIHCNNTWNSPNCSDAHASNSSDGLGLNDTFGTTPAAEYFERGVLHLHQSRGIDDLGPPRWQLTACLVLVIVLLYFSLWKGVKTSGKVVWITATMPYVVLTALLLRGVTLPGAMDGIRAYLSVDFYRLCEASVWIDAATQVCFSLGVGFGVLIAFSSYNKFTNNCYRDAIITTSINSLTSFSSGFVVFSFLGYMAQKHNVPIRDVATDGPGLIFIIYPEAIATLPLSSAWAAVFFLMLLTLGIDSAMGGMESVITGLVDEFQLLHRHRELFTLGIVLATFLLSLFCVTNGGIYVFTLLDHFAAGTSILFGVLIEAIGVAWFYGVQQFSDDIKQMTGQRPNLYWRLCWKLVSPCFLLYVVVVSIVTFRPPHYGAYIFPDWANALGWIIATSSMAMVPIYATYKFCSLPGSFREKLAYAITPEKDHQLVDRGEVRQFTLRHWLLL
Sequence of Sodium-dependent serotonin transporter (P31652 whole entry): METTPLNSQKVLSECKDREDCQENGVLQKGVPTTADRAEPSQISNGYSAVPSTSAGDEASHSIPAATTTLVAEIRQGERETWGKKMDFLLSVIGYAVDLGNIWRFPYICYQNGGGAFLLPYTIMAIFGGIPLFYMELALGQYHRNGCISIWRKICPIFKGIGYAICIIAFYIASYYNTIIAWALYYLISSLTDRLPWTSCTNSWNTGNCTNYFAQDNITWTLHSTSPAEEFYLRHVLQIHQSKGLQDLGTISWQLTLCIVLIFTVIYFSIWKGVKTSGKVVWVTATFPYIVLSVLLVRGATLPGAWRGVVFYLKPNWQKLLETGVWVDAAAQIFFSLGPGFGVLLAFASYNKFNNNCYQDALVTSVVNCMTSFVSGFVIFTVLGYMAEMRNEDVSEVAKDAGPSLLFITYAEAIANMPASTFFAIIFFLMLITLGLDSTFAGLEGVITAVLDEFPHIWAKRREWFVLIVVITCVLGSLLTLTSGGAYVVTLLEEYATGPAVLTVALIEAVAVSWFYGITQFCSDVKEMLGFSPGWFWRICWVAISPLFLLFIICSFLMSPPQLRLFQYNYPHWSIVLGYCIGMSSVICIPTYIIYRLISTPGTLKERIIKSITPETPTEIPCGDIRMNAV

The term IC50 denotes the concentration that gives 50% inhibition. `COC(=O)[C@H]1[C@@H](c2ccc(F)cc2)C[C@H]2CC[C@H]1N2C` (stereo in doubt; 2a) yielded an IC50 in assay [1] of 5.06 µM.

In turn, `COC(=O)[C@@H]1C2CC[C@H](C[C@@H]1c1ccccc1)N2C` (stereo in doubt; 2e) gave an IC50 in assay [2] of 0.101 µM.

As for `COC(=O)[C@H]1[C@@H](c2ccc(F)cc2)C[C@H]2CC[C@H]1N2C` (stereo in doubt; 1a), the IC50 in assay [1] stood at 0.81 µM.

In the case of `COC(=O)C1C(c2ccc(I)cc2)CC2CCC1N2C` (stereo in doubt; form 1), the IC50 in assay [2] came to 0.00285 µM; in assay [3], 0.0524 µM.

As for `COC(=O)C1C(c2ccc(Cl)cc2)CC2CCC1N2C` (stereo in doubt; 2c), the IC50 is 0.0024 µM in assay [2] and 0.998 µM in assay [1].

In the case of `COC(=O)C1C(c2ccc(C)cc2)CC2CCC1N2C` (centres undefined), the IC50 was 0.0102 µM in assay [2] and 0.275 µM in assay [3].

(Values after ChEMBL document CHEMBL1129677, “3 alpha-(4'-substituted phenyl)tropane-2 beta-carboxylic acid methyl esters: novel ligands with high affinity and selectivity at the dopamine transporter” (J Med Chem, 1996).)
